Assay results taken from US10428124B2, “Timothy grass allergens and methods and uses for immune response modulation” (LA JOLLA INSTITUTE FOR ALLERGY AND IMMUNOLOGY, priority 2012, dated 2019).

Experiments:
[1] = tested on: human IgE; assay: 2D gel immunoblot of TG extract with serum pool from 8 TG-allergic donors, IgE reactivity; type: binding; settings: for Antibody reactvity IgE/IgG: IgE: E− = not IgE reactive
Experimental: (§1) 2D DIGE (Difference Gel Electrophoresis) analysis. The complete 2D DIGE analysis was performed by Applied Biomics (Hayward, Calif., US). Briefly, TG extract was run on two 2D gels (3-10 pH range, 12% SDS-acrylamide gel), one was Coomassie blue stained, the other was blotted onto a nitrocellulose membrane. The membrane was then incubated with 5% dried milk in PBS/0.05% Tween to block non-specific binding and subsequently probed with a serum pool from 8 TG-allergic individuals at a dilution of 1:250. IgE and IgG binding was detected using goat anti-human IgE and rabbit anti-human IgG (Sigma-Aldrich, St. Louis, Mo.) and visualized using Cy2-conjugated donkey anti-goat IgG and Cy5-conjugated donkey […] IgG antibodies (Biotium, Hayward, Calif.).
(§2) Mass spectral protein identification was performed by Applied Biomics (Hayward, Calif., US). Briefly, spots of interest were selected from the 2D blot and the corresponding spots were identified on the stained SDS gel and cut out, washed several times to remove staining dye and other inhibitory chemicals. The spots were then dried to absorb maximum digestion buffer. Dried 2D gel spots were rehydrated in digestion buffer containing trypsin. Proteins were digested in-gel at 37° C. and then extracted from the gel with TFA extraction buffer. Subsequently the peptides were desalted using C-18 Zip-tips (Millipore) and mixed with CHCA matrix (alpha-cyano-4-hydroxycinnamic acid) and spotted into wells of a MALDI plate. Mass spectra of the peptides in each sample were obtained using an Applied Biosystems Proteomics Analyzer. The spectra were compared to the amino acid sequences encoded by putative ORFs from the de novo assembled TG pollen transcripts. […] The amino acid sequences encoded by these ORFs were clustered using a custom script at a sequence similarity threshold of 90% to group together highly similar protein sequences. These sequences are encoded by different transcripts from the current assembly, which could arise from splice variants, allelic variation between cells of TG pollen, and from gene families with multiple members. Amino acid sequences that form one cluster are assigned one putative protein ID (Table 1).

[2] = tested on: PBMCs from TG allergic donors; assay: IFNg ELISPOT of TG extract-expanded PBMCs from TG allergic donors (single peptides); type: cell-based, human; settings: T cell recognition in TG allergic patients; for Total response IFNg Events: number of positive responses
[3] = tested on: PBMCs from TG allergic donors; assay: IL-5 ELISPOT of TG extract-expanded PBMCs from TG allergic donors (peptide pools, single peptides, TG extract); type: cell-based, human
Experimental: Each donor was recruited following Institutional Review Board approval (Federal Wide Assurance number 00000032) and informed consent and assigned a study identification number. Donors were tested for allergen reactivity by skin prick tests to extracts from 32 common allergens. TG allergic donors were identified as having a skin reaction with a wheal of 5 mm in diameter to TG and a clinical history consistent with seasonal grass pollen allergy. Donors that had received specific immunotherapy were excluded. Non-allergic donors were identified as having negative skin prick tests to all allergens and no clinical history of allergy.
PBMCs were isolated by density gradient centrifugation from one unit of blood (˜450 ml) and cryo-preserved as described previously (12). For in vitro expansions, PBMCs were thawed and cultured in RPMI 1640 (Ω Scientific, Tarzana, Calif.) supplemented with 5% human AB serum (Cellgro, Herndon, Va.) at a density of 2×10^6 cells/ml in 24-well plates (BD Biosciences, San Jose, Calif.) and stimulated with TG pollen extract ([…]) (Greer, Lenoir, N.C.). Cells were kept at 37° C., 5% CO2 and additional IL-2 and IL-7 (10 U/ml, eBioscience, San Diego, Calif.) was added every 3 d after initial antigenic stimulation. On day 14, cells were harvested and screened for reactivity against TG-specific peptide pools (16-25 peptides/pool, averaging 20 peptides/pool). On day 17, peptides from positive pools were tested individually to identify the reactive epitopes.
The production of IL-5 from cultured PBMCs in response to antigen stimulation was measured by ELISPOT as described previously (12). Briefly, 1×10^5 cells/well were incubated with peptide, peptide pool or TG extract (10 μg/ml, 5 μg/ml and 50 μg/ml, respectively). After 24 h, cells were removed and plates were incubated with 2 μg/ml biotinylated anti-human IL-5 Ab (Mabtech) at 37° C. After 2 h, plates were washed and avidin-peroxidase-complex was added (Vector Laboratories, Burlingame, Calif.) for 1 h at RT. Peroxidase-conjugated spots were developed with 3-amino-9-ethylcarvazole solution (Sigma-Aldrich, St. Louis, Mo.). Criteria for peptide pool positivity were 100 SFCs/106 PBMCs, p 0.05, and a stimulation index (SI) 2. Criteria for individual peptides were the same except a minimum of 20 SFCs was counted as positive.

[4] = tested on: human IgG; assay: 2D gel immunoblot of TG extract with serum pool from 8 TG-allergic donors, IgG reactivity; type: binding
Experimental: as §1, §2

[5] = tested on: PBMCs from TG allergic donors; assay: IFNg ELISPOT of TG extract-expanded PBMCs (single peptides); type: cell-based, human; settings: for Total response IFNg Events: number of positive response events to the 15-mer peptide
[6] = tested on: PBMCs from TG allergic donors; assay: IFNg ELISPOT of TG extract-expanded PBMCs from TG allergic donors (single peptides); type: cell-based, human; settings: TG allergic patients; number of positive responses
[7] = tested on: PBMCs from TG allergic donors; assay: as above; type: cell-based, human; settings: T cell recognition in TG allergic patients
[8] = tested on: PBMCs from TG allergic donors; assay: as above; type: cell-based, human
[9] = reactivity of the parent TG antigen, given per peptide
[10] = reactivity of the parent antigen
[11] = T cell recognition in TG allergic patients, number of positive responses
[12] = number of positive response events to the 15-mer peptide
[13] = reactivity of the parent TG antigen, given per peptide, G− = not IgG reactive
[14] = reactivity of the parent antigen, G+ = IgG reactive, G− = not

For “86231 (IMQLLRDNLTLWTSD; Phleum pratense) [Peptide 86231]”, the “Antibody reactvity IgE/IgG: IgE” value [1, 9] was “E−”, the “Antibody reactvity IgE/IgG: IgE” value [1, 10] was “E−” and the “Total response IFNg SFC” value [2] was 73 SFC. For the same substance, the “Total response IFNg Events” value [2] was 1, the “Total response IL-5 Events” value [3, 11] was 0 and the “Total response IL-5 Events” value [3, 12] was 0. The “Antibody reactvity IgE/IgG: IgG” value [4, 13] was “G−”, the “Antibody reactvity IgE/IgG: IgG” value [4, 14] was “G−” and the “Total response IFNg SFC” value ([5]; 15-mer peptide) was 73 SFC. For the same substance, the “Total response IFNg Events” value [5] was 1.

In the case of “82109 (GDLYIFESRAICKYA; Phleum pratense) [Peptide 82109]”, the “Antibody reactvity IgE/IgG (IgE part)” value ([1]; IgE reactivity of the parent antigen) is reported as “E−”, the “Antibody reactvity IgE/IgG: IgE” value [1, 10] is reported as “E−” and the “Total response IL-5 SFC” value ([3]; 15-mer peptide) is reported as 290 SFC. For the same substance, the “Total response IL-5 Events” value ([3]; TG allergic patients, number of positive responses) was 1, the “Total response IL-5 SFC” value ([3]; TG allergic patients, total spot-forming cells) was 290 SFC and the “Total response IL-5 Events” value [3, 12] was 1. For the same substance, the “Antibody reactvity IgE/IgG (IgG part)” value ([4]; IgG reactivity of the parent antigen) was “G−”, the “Antibody reactvity IgE/IgG: IgG” value [4, 14] was “G−” and the “Total response IFNg Events” value [6] was 0. The “Total response IFNg Events” value [5] was 0.

With “882 (DVYPTVCLPMCVCVL; Phleum pratense) [Peptide 882]” the “Antibody reactvity IgE/IgG: IgE” value [1, 9] was “E−”, the “Total response IFNg Events” value [2] was 0 and the “Total response IL-5 Events” value [3, 11] was 0. The “Antibody reactvity IgE/IgG: IgG” value [4, 13] was “G−”.

“252 (SAPALRILRSFPSHS; Phleum pratense) [Peptide 252]” was tested, and the “Antibody reactvity IgE/IgG (IgE part)” value ([1]; E+ / E− part of the cell, reactivity of the parent antigen) was “E+”, the “Antibody reactivity IgE/IgG: IgE” value ([1]; IgE reactivity (E+/E−) of the source antigen of the peptide) was “E+” and the “Total response IL-5 Events” value ([3]; IL-5, number of positive response events) was 1. For the same substance, the “Total response IL-5 SFC” value ([3]; IL-5, total SFC) was 97 SFC, the “Total response IL-5 SFC” value ([3]; T cell recognition in TG allergic patients) was 97 SFC and the “Total response IL-5 Events” value ([3]; T cell recognition in TG allergic patients, number of response events) was 1. The “Antibody reactvity IgE/IgG (IgG part)” value ([4]; G+ / G− part of the cell, reactivity of the parent antigen) was “G−”, the “Antibody reactivity IgE/IgG: IgG” value ([4]; IgG reactivity (G+/G−) of the source antigen of the peptide) was “G−” and the “Total response IFNg SFC” value [7] was 143 SFC. For the same substance, the “Total response IFNg Events” value ([7]; number of response events) was 1, the “Total response IFNg Events” value ([8]; number of positive response events) was 1 and the “Total response IFNg SFC” value ([8]; total SFC) was 143 SFC.
